The values below come from US10610520B2, “Heterocyclic compound” (Takeda Pharmaceutical Company Limited, priority 2016, dated 2020).

What is called inhibition is the relative decrease from the control value, in per cent.

The target of the test is T1, His-hMAGL (recombinant polyhistidine tagged human MAGL protein) (Homo sapiens, UniProt Q99685).
T1 construct: made in house; host or cells: E. coli BL21(DE3)
T1 sequence (Q99685 1-303): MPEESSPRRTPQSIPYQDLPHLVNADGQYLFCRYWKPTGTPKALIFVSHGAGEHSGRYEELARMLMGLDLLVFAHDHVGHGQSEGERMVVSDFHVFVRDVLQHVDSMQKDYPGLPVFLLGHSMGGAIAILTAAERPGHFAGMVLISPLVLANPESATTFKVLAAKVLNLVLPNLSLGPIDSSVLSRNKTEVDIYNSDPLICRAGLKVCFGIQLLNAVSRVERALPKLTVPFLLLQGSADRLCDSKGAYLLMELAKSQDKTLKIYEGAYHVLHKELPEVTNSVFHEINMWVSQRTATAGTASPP
Nature of the test: Measurement of MAGL inhibitory activity (arachidonic acid production from 2-arachidonylglycerol, RapidFire-mass spectrometry). In kind it is biochemical. The conditions noted are these: MAGL inhibitory rate, test compound 10 μM, 60 min preincubation, 2-arachidonylglycerol substrate. The protocol: The His-hMAGL obtained above was diluted with enzyme reaction buffer (10 mM Tris-HCl, pH 7.5, 1 mM EDTA, 0.025 (w/v) % Triton X-100, 0.01% Bovine serum albumin) to a concentration of 7.5 ng/mL. […] Thereafter, to each well was added 5 μL of 150 μM 2-arachidonylglycerol (Tocris Bioscience), and the mixture was incubated at room temperature for 10 min. Then, 10 μL of 2% formic acid (Wako Pure Chemical Industries, Ltd.) was added to stop the reaction. Furthermore, acetonitrile (50 μL) containing 3 μM arachidonic acid-d8 (Cayman Chemical Company) was added and the mixture was stirred.
The amount of arachidonic acid in the obtained enzyme reaction mixture was calculated by measuring by RapidFire-mass spectrometry and correcting by the amount of arachidonic acid-d8. High Throughput online solid phase extraction was performed using RapidFire 300™ system (Agilent Technologies, Inc.). Samples were loaded on SPE C4 cartridge (Agilent Technologies, Inc.) and desalted with 0.2 (v/v) % acetic acid (Wako Pure Chemical Industries, Ltd.) in ultrapure water/acetonitrile (70/30, v/v) at a flow rate of 1.5 mL/min, eluted at a flow rate of 0.5 mL/min with 0.2 (v/v) % acetic acid dissolved in acetonitrile/ultrapure water (90/10, v/v), and injected into the mass spectrometry part. The injection needle was washed with ultrapure water (500 millisecond) and acetonitrile (500 millisecond) to minimize carry-over. […] The RapidFire300 system was controlled by RapidFire UI software version 3.6 (Agilent Technologies, Inc.).
The mass spectrometry of the resultant product was performed using API4000™ triple quadrupole mass spectrometer (AB SCIEX) equipped with an electrospray ion sauce (TurboIon Spray™) in a negative selected reaction monitoring (SRM) mode. The conditions of SRM are shown below. The parameters of the instrument were optimized as follows: capillary temperature 600° C., ion spray voltage −4.5 kV, collision gas 8, curtain gas 15 psi, ion source gas 1 60 psi, ion source gas 2 60 psi. The mass spectrometer was controlled by Analyst™ software version 1.5.1 (AB SCIEX). The peak area integration was analyzed using RapidFire integrator software version 3.6 (Agilent Technologies, Inc.).
MAGL inhibitory rate (%) was calculated according to the following calculation formula. (1-(arachidonic acid production amount of test compound addition group−arachidonic acid production amount of enzyme-free group)÷(arachidonic acid production amount of test compound-free group−arachidonic acid production amount of enzyme-free group))×100
Take `O=C1NC2(CO1)CN(C(=O)c1sc3cc(OC(F)(F)F)ccc3c1C(F)(F)F)C2` [Example 261, 2-((6-(trifluoromethoxy)-3-(trifluoromethyl)-1-benzothiophen-2-yl)carbonyl)-7-oxa-2,5-diazaspiro[3.4]octan-6-one]: the inhibition at 10 µM came to 100%.

As to `Cn1c(-c2ccc(C(=O)N3CC4(CCC(=O)N4)C3)cc2)cc2ccccc21` [Example 56, 2-(4-(1-methyl-1H-indol-2-yl)benzoyl)-2,5-diazaspiro[3.4]octan-6-one], the inhibition at 10 µM was 94%. With `O=C1CCC2(CN(C(=O)N3CCC(C(F)(F)c4ccc(F)cc4)CC3)C2)N1` [Example 29, 2-((4-(difluoro(4-fluorophenyl)methyl)piperidin-1-yl)carbonyl)-2,5-diazaspiro[3.4]octan-6-one], the inhibition at 10 µM worked out at 98%. For `Cc1c(OC(F)(F)F)ccc2c(Cl)c(C(=O)N3CC4(COC(=O)N4)C3)sc12` [Example 286, 2-((3-chloro-7-methyl-6-(trifluoromethoxy)-1-benzothiophen-2-yl)carbonyl)-7-oxa-2,5-diazaspiro[3.4]octan-6-one] the value was 100%; for `O=C1NC2(CO1)CN(C(=O)c1sc3cc(Br)ccc3c1Cl)C2` [Example 307, 2-((6-bromo-3-chloro-1-benzothiophen-2-yl)carbonyl)-7-oxa-2,5-diazaspiro[3.4]octan-6-one], 100%; for `O=C1NC2(CCO1)CN(C(=O)c1sc3cc(OC(F)(F)F)ccc3c1Cl)C2` [Example 282, 2-((3-chloro-6-(trifluoromethoxy)-1-benzothiophen-2-yl)carbonyl)-7-oxa-2,5-diazaspiro[3.5]nonan-6-one], 99%. As to `O=C1CCC2(CN(C(=O)c3sc4cc(OC(F)(F)F)ccc4c3C(F)(F)F)C2)N1` [Example 263, 2-((6-(trifluoromethoxy)-3-(trifluoromethyl)-1-benzothiophen-2-yl)carbonyl)-2,5-diazaspiro[3.4]octan-6-one], the inhibition at 10 µM came to 98%. In the case of `O=C1NC2(CCO1)CN(C(=O)c1sc3cccc(OC(F)(F)F)c3c1Cl)C2` [Example 283, 2-((3-chloro-4-(trilfuoromethoxy)-1-benzothiophen-2-yl)carbonyl)-7-oxa-2,5-diazaspiro[3.5]nonan-6-one], the inhibition at 10 µM turned out to be 99%.

As for `O=C1NC2(CO1)CN(C(=O)[C@H]1C[C@H](OCc3ccc(C(F)(F)F)cc3F)C1)C2` [Example 354, 2-((trans-3-((2-fluoro-4-(trifluoromethyl)benzyl)oxy)cyclobutyl)carbonyl)-7-oxa-2,5-diazaspiro[3.4]octan-6-one], the inhibition at 10 µM is 100%.

For the compound `O=C1COCC2(CN(C(=O)c3sc4cc(C(F)(F)F)ccc4c3Cl)C2)N1` [Example 242, 2-((3-chloro-6-(trifluoromethyl)-1-benzothiophen-2-yl)carbonyl)-8-oxa-2,5-diazaspiro[3.5]nonan-6-one], the inhibition at 10 µM was found to be 99%. In the case of `O=C1CCC2(CN(C(=O)c3ccc(-c4cccc(C(F)(F)F)c4Cl)cc3)C2)N1` [Example 51, 2-((2′-chloro-3′-(trifluoromethyl)biphenyl-4-yl)carbonyl)-2,5-diazaspiro[3.4]octan-6-one], the inhibition at 10 µM worked out at 99%. Consider `O=C1NC2(CCN(C(=O)c3sc4cc(C(F)(F)F)cc(F)c4c3Cl)C2)CO1` (stereo not drawn) [Example 334, 7-((3-chloro-4-fluoro-6-(trifluoromethyl)-1-benzothiophen-2-yl)carbonyl)-3-oxa-1,7-diazaspiro[4.4]nonan-2-one], for which the inhibition at 10 µM was found to be 100%. Regarding `COc1c(F)cc(-c2ccc(C(=O)N3CC4(CCC(=O)N4)C3)cc2)cc1F` [Example 71, 2-((3′,5′-difluoro-4′-methoxybiphenyl-4-yl)carbonyl)-2,5-diazaspiro[3.4]octan-6-one], the inhibition at 10 µM turned out to be 94%. Under `O=C1COCC2(CCN(C(=O)N3CCC(COc4ccc(F)cc4Cl)CC3)C2)N1` (stereo not drawn) [Example 276, 2-((4-((2-chloro-4-fluorophenoxy)methyl)piperidin-1-yl)carbonyl)-9-oxa-2,6-diazaspiro[4.5]decan-7-one] stands 99%. Regarding `O=C1CCC2(CN(C(=O)N3CCC(Cc4ccc(Cl)cc4Cl)CC3)C2)N1` [Example 102, 2-((4-(2,4-dichlorobenzyl)piperidin-1-yl)carbonyl)-2,5-diazaspiro[3.4]octan-6-one], the inhibition at 10 µM amounted to 102%. In the case of `O=C1CCC2(CN(C(=O)N3CC(COc4ccc(C(F)(F)F)cc4F)C3)C2)N1` [Example 8, 2-((3-((2-fluoro-4-(trifluoromethyl)phenoxy)methyl)azetidin-1-yl)carbonyl)-2,5-diazaspiro[3.4]octan-6-one], the inhibition at 10 µM was 100%. Consider `O=C1NC2(CO1)CN(C(=O)c1sc3c(Cl)c(OC(F)F)cc(F)c3c1Cl)C2` [Example 303, 2-((3,7-dichloro-6-(difluoromethoxy)-4-fluoro-1-benzothiophen-2-yl)carbonyl)-7-oxa-2,5-diazaspiro[3.4]octan-6-one], for which the inhibition at 10 µM is 100%. In the case of `O=C1CCC2(CN(C(=O)c3sc(-c4ccc(OC(F)(F)F)cc4)cc3Cl)C2)N1` [Example 249, 2-((3-chloro-5-(4-(trifluoromethoxy)phenyl)-2-thienyl)carbonyl)-2,5-diazaspiro[3.4]octan-6-one], the inhibition at 10 µM came out at 93%. Turning to `O=C1NC2(CO1)CN(C(=O)c1sc3cc(Br)cc(F)c3c1Cl)C2` [Example 285, 2-((6-bromo-3-chloro-4-fluoro-1-benzothiophen-2-yl)carbonyl)-7-oxa-2,5-diazaspiro[3.4]octan-6-one], the inhibition at 10 µM was found to be 100%.

For `Cc1ccccc1-c1ccc2c(Cl)c(C(=O)N3CC4(CCC(=O)N4)C3)sc2c1` [Example 185, 2-((3-chloro-6-(2-methylphenyl)-1-benzothiophen-2-yl)carbonyl)-2,5-diazaspiro[3.4]octan-6-one], the inhibition at 10 µM stood at 99%.

Regarding `Cc1cc(OC(F)(F)F)cc2sc(C(=O)N3CC4(COC(=O)N4)C3)c(Cl)c12` [Example 296, 2-((3-chloro-4-methyl-6-(trifluoromethoxy)-1-benzothiophen-2-yl)carbonyl)-7-oxa-2,5-diazaspiro[3.4]octan-6-one], the inhibition at 10 µM amounted to 101%.

For `O=C1CCC2(CN(C(=O)N3CCC(C(c4ccccc4)c4ccccc4)CC3)C2)N1` [Example 112, 2-((4-(diphenylmethyl)piperidin-1-yl)carbonyl)-2,5-diazaspiro[3.4]octan-6-one], the inhibition at 10 µM is 101%.

With `O=C1CCC2(CN(C(=O)N3CC(COc4ccc(C(F)(F)F)cc4Cl)C3)C2)N1` [Example 17, 2-((3-((2-chloro-4-(trifluoromethyl)phenoxy)methyl)azetidin-1-yl)carbonyl)-2,5-diazaspiro[3.4]octan-6-one], the inhibition at 10 µM came to 98%. For `O=C1CCC2(CN(C(=O)c3sc4cc(OC(F)(F)F)cc(F)c4c3Cl)C2)N1` [Example 251, 2-((3-chloro-4-fluoro-6-(trifluoromethoxy)-1-benzothiophen-2-yl)carbonyl)-2,5-diazaspiro[3.4]octan-6-one], the inhibition at 10 µM was 99%. On to `O=C1NC2(CO1)CN(C(=O)c1sc3cc(OC(F)F)ccc3c1Cl)C2` [Example 259, 2-((3-chloro-6-(difluoromethoxy)-1-benzothiophen-2-yl)carbonyl)-7-oxa-2,5-diazaspiro[3.4]octan-6-one], for which the inhibition at 10 µM was determined as 101%. Consider `O=C1NC2(CO1)CN(C(=O)c1sc3cc(C(F)F)cc(C(F)(F)F)c3c1Cl)C2` [Example 291, 2-((3-chloro-6-(difluoromethyl)-4-(trifluoromethyl)-1-benzothiophen-2-yl)carbonyl)-7-oxa-2,5-diazaspiro[3.4]octan-6-one], for which the inhibition at 10 µM came out at 101%. For `O=C1NC2(CO1)CN(C(=O)c1sc3cccc(OC(F)(F)F)c3c1Cl)C2` [Example 266, 2-((3-chloro-4-(trifluoromethoxy)-1-benzothiophen-2-yl)carbonyl)-7-oxa-2,5-diazaspiro[3.4]octan-6-one] the value was 101%.
